Source: the NIST ThermoML archive (doi:10.1021/acs.jced.6b00750)
Numbers after ± are expanded uncertainties.

Assay: xn = mol fraction of the nth substance listed
Conditions: Liquid; for mass density: Vibrating wire densiometer; for viscosity: Vibrating wire viscometry

CCCCCCCCCCCCCCCC [hexadecane] + O=C=O
Conditions | mass density [kg/m3] | viscosity [mPa·s]
298.14 K, 21810 kPa, x2 = 0.727 | 822.6 ± 2.5 | 0.786 ± 0.018
298.14 K, 22010 kPa, x2 = 0.727 | 822.8 ± 2.5 | 0.787 ± 0.018
298.14 K, 31030 kPa, x2 = 0.727 | 831.7 ± 2.5 | 0.861 ± 0.02
298.14 K, 41130 kPa, x2 = 0.727 | 840.7 ± 2.6 | 0.943 ± 0.021
298.16 K, 10920 kPa, x2 = 0.069 | 776.3 ± 2.3 | 3.057 ± 0.066
298.16 K, 11130 kPa, x2 = 0.069 | 776.5 ± 2.3 | 3.075 ± 0.066
298.16 K, 21440 kPa, x2 = 0.069 | 782.8 ± 2.4 | 3.474 ± 0.074
298.16 K, 30250 kPa, x2 = 0.069 | 787.6 ± 2.4 | 3.87 ± 0.082
298.18 K, 10440 kPa, x2 = 0.5877 | 802.3 ± 2.5 | 1.003 ± 0.025
298.18 K, 10670 kPa, x2 = 0.5877 | 802.7 ± 2.5 | 0.998 ± 0.025
298.18 K, 20560 kPa, x2 = 0.5877 | 811.8 ± 2.5 | 1.107 ± 0.027
298.18 K, 30070 kPa, x2 = 0.5877 | 819.7 ± 2.5 | 1.219 ± 0.029
298.18 K, 40380 kPa, x2 = 0.5877 | 827.4 ± 2.5 | 1.344 ± 0.033
323.12 K, 21230 kPa, x2 = 0.727 | 796.3 ± 2.4 | 0.565 ± 0.013
323.12 K, 21410 kPa, x2 = 0.727 | 796.3 ± 2.4 | 0.565 ± 0.013
323.12 K, 40330 kPa, x2 = 0.727 | 817.3 ± 2.5 | 0.679 ± 0.016
323.12 K, 60540 kPa, x2 = 0.727 | 835.2 ± 2.5 | 0.806 ± 0.018
323.12 K, 80280 kPa, x2 = 0.727 | 850.1 ± 2.6 | 0.93 ± 0.021
323.12 K, 100230 kPa, x2 = 0.727 | 863.2 ± 2.6 | 1.064 ± 0.025
323.12 K, 119920 kPa, x2 = 0.727 | 874.7 ± 2.6 | 1.204 ± 0.027
323.15 K, 10410 kPa, x2 = 0.069 | 759.1 ± 2.3 | 1.83 ± 0.039
323.15 K, 10420 kPa, x2 = 0.069 | 759.2 ± 2.3 | 1.827 ± 0.039
323.15 K, 10630 kPa, x2 = 0.5877 | 779 ± 2.4 | 0.704 ± 0.017
323.15 K, 10860 kPa, x2 = 0.5877 | 779.5 ± 2.4 | 0.703 ± 0.017
323.15 K, 20230 kPa, x2 = 0.069 | 765.7 ± 2.3 | 2.061 ± 0.044
323.15 K, 20850 kPa, x2 = 0.5877 | 790.2 ± 2.4 | 0.786 ± 0.018
323.15 K, 40110 kPa, x2 = 0.5877 | 807.6 ± 2.5 | 0.947 ± 0.022
323.15 K, 40860 kPa, x2 = 0.069 | 778.3 ± 2.3 | 2.56 ± 0.054
323.15 K, 60100 kPa, x2 = 0.5877 | 822.7 ± 2.5 | 1.122 ± 0.026
323.15 K, 60910 kPa, x2 = 0.069 | 788.7 ± 2.4 | 3.13 ± 0.066
323.15 K, 80840 kPa, x2 = 0.069 | 798.2 ± 2.4 | 3.755 ± 0.079
323.15 K, 99870 kPa, x2 = 0.069 | 806 ± 2.4 | 4.474 ± 0.093
373.08 K, 10380 kPa, x2 = 0.069 | 726.3 ± 2.2 | 0.927 ± 0.025
373.08 K, 12120 kPa, x2 = 0.069 | 728 ± 2.2 | 0.947 ± 0.02
373.08 K, 21470 kPa, x2 = 0.069 | 735.9 ± 2.2 | 1.048 ± 0.023
373.08 K, 26470 kPa, x2 = 0.727 | 752.5 ± 2.3 | 0.365 ± 0.009
373.08 K, 26600 kPa, x2 = 0.727 | 752.7 ± 2.3 | 0.365 ± 0.009
373.08 K, 40330 kPa, x2 = 0.069 | 749.9 ± 2.3 | 1.263 ± 0.027
373.08 K, 40830 kPa, x2 = 0.727 | 773 ± 2.4 | 0.424 ± 0.01
373.08 K, 60000 kPa, x2 = 0.727 | 794.6 ± 2.4 | 0.503 ± 0.012
373.08 K, 60300 kPa, x2 = 0.069 | 762.5 ± 2.3 | 1.514 ± 0.032
373.08 K, 80110 kPa, x2 = 0.727 | 813.1 ± 2.5 | 0.581 ± 0.013
373.08 K, 80560 kPa, x2 = 0.069 | 773.5 ± 2.3 | 1.794 ± 0.038
373.08 K, 99990 kPa, x2 = 0.727 | 828.7 ± 2.5 | 0.659 ± 0.015
373.08 K, 100830 kPa, x2 = 0.069 | 783.5 ± 2.4 | 2.087 ± 0.047
373.08 K, 117640 kPa, x2 = 0.727 | 840.7 ± 2.5 | 0.735 ± 0.017
373.11 K, 20760 kPa, x2 = 0.5877 | 745.5 ± 2.3 | 0.463 ± 0.011
373.11 K, 20790 kPa, x2 = 0.5877 | 745.5 ± 2.3 | 0.463 ± 0.011
373.11 K, 40220 kPa, x2 = 0.5877 | 768.7 ± 2.4 | 0.564 ± 0.013
373.11 K, 60460 kPa, x2 = 0.5877 | 787.7 ± 2.4 | 0.67 ± 0.015
373.11 K, 80240 kPa, x2 = 0.5877 | 803.1 ± 2.4 | 0.775 ± 0.018
423.11 K, 11500 kPa, x2 = 0.069 | 694.2 ± 2.1 | 0.574 ± 0.013
423.11 K, 11890 kPa, x2 = 0.069 | 694.7 ± 2.1 | 0.576 ± 0.013
423.11 K, 21700 kPa, x2 = 0.069 | 705.2 ± 2.2 | 0.645 ± 0.015
423.11 K, 25910 kPa, x2 = 0.5877 | 708.9 ± 2.2 | 0.328 ± 0.008
423.11 K, 25970 kPa, x2 = 0.5877 | 709.4 ± 2.2 | 0.33 ± 0.008
423.11 K, 40190 kPa, x2 = 0.5877 | 730.3 ± 2.3 | 0.384 ± 0.009
423.11 K, 40710 kPa, x2 = 0.069 | 722.5 ± 2.2 | 0.778 ± 0.017
423.11 K, 42080 kPa, x2 = 0.727 | 730.1 ± 2.3 | 0.296 ± 0.008
423.11 K, 42200 kPa, x2 = 0.727 | 730.3 ± 2.3 | 0.296 ± 0.008
423.11 K, 60240 kPa, x2 = 0.5877 | 753.3 ± 2.3 | 0.462 ± 0.011
423.11 K, 60280 kPa, x2 = 0.727 | 755.6 ± 2.3 | 0.353 ± 0.009
423.11 K, 60590 kPa, x2 = 0.069 | 737.2 ± 2.2 | 0.929 ± 0.02
423.11 K, 80390 kPa, x2 = 0.727 | 777.7 ± 2.4 | 0.412 ± 0.01
423.11 K, 80460 kPa, x2 = 0.5877 | 772 ± 2.3 | 0.537 ± 0.012
423.11 K, 80740 kPa, x2 = 0.069 | 750 ± 2.3 | 1.083 ± 0.023
423.11 K, 100360 kPa, x2 = 0.727 | 795.9 ± 2.4 | 0.471 ± 0.011
423.11 K, 100800 kPa, x2 = 0.5877 | 787.9 ± 2.4 | 0.614 ± 0.014
423.11 K, 101550 kPa, x2 = 0.069 | 761.6 ± 2.3 | 1.253 ± 0.027
423.11 K, 118170 kPa, x2 = 0.5877 | 799.8 ± 2.4 | 0.683 ± 0.015
423.11 K, 120210 kPa, x2 = 0.727 | 811.4 ± 2.5 | 0.529 ± 0.012
473.15 K, 43620 kPa, x2 = 0.5877 | 697.7 ± 2.2 | 0.293 ± 0.008
473.15 K, 43720 kPa, x2 = 0.5877 | 697.7 ± 2.2 | 0.292 ± 0.008
473.15 K, 60700 kPa, x2 = 0.5877 | 720.7 ± 2.2 | 0.343 ± 0.009
473.15 K, 80450 kPa, x2 = 0.5877 | 742 ± 2.3 | 0.402 ± 0.01
473.15 K, 100840 kPa, x2 = 0.5877 | 760.2 ± 2.3 | 0.46 ± 0.011
473.15 K, 120610 kPa, x2 = 0.5877 | 775.2 ± 2.4 | 0.52 ± 0.012
473.26 K, 61090 kPa, x2 = 0.727 | 718.9 ± 2.2 | 0.267 ± 0.007
473.26 K, 61330 kPa, x2 = 0.727 | 719.1 ± 2.2 | 0.268 ± 0.007
473.26 K, 80480 kPa, x2 = 0.727 | 744 ± 2.3 | 0.313 ± 0.008
473.26 K, 100590 kPa, x2 = 0.727 | 765.1 ± 2.3 | 0.36 ± 0.009
473.26 K, 120860 kPa, x2 = 0.727 | 783 ± 2.4 | 0.407 ± 0.01
